Measured values taken from ChEMBL document CHEMBL5370646, “Synthesis and Conformational Analysis of FR901464-Based RNA Splicing Modulators and Their Synergism in Drug-Resistant Cancers” (J Med Chem, 2023).

Columns and labels:
[1] = Metabolic stability in CD1 mouse plasma assessed as half life measured after 10 mins by LC-MS analysis; assay type: ADME, cell-free
A549 = assay: Growth inhibition of human A549 cells assessed as reduction in cell viability incubated for 72 hrs; assay type: functional
[2] = Growth inhibition of mouse FL83B cells assessed as reduction in cell viability incubated for 72 hrs; assay type: toxicity, cell-based
[3] = Growth inhibition of human CCD-841CoN cells assessed as reduction in cell viability incubated for 72 hrs; assay type: toxicity, cell-based
DMS-53 = assay: Growth inhibition of human DMS-53 cells assessed as reduction in cell viability incubated for 72 hrs; assay type: functional
HCT-116 [4] = assay: Growth inhibition of human HCT-116 cells assessed as reduction in cell viability incubated for 72 hrs; assay type: functional
SW48 = assay: Growth inhibition of human SW48 cells assessed as reduction in cell viability incubated for 72 hrs; assay type: functional
DMS-114 = assay: Growth inhibition of human DMS-114 cells assessed as reduction in cell viability incubated for 72 hrs; assay type: functional
[5] = Synergistic antiproliferative activity against human Osimertinib-resistant HCC827AR cell assessed as combination index at 2.5 nM incubated for 72 hrs in presence of 1 uM osimertinib by WST-1 assay; assay type: functional
[6] = Synergistic antiproliferative activity against human Osimertinib-resistant HCC827AR cell assessed as combination index at 2.5 nM incubated for 72 hrs in presence of 4 uM osimertinib by WST-1 assay; assay type: functional
[7] = Synergistic antiproliferative activity against human Osimertinib-resistant HCC827AR cell assessed as combination index at 2.5 nM incubated for 72 hrs in presence of 0.50 uM osimertinib by WST-1 assay; assay type: functional
[8] = Synergistic antiproliferative activity against human Osimertinib-resistant HCC827AR cell assessed as combination index at 2.5 nM incubated for 72 hrs in presence of 2 uM osimertinib by WST-1 assay; assay type: functional
[9] = Synergistic antiproliferative activity against human Osimertinib-resistant HCC827AR cell assessed as combination index at 2.5 nM incubated for 72 hrs in presence of 0.25 uM osimertinib by WST-1 assay; assay type: functional
HCT-116 [10] = assay: Modulation of RNA splicing in human HCT-116 cells assessed as decrease in SF3B1 phosphorylation at thr313 residue by Western blot analysis; assay type: functional, cell-based; settings: dose 3-100 nM
HCT-116 [11] = assay: Modulation of RNA splicing in human HCT-116 cells assessed as decrease in MCL-1L expression by Western blot analysis; assay type: functional, cell-based; settings: dose 3-100 nM
[12] = Metabolic stability in CD1 mouse plasma measured after 48 hrs by LC-MS analysis; assay type: ADME, cell-free
[13] = Metabolic stability in CD1 mouse plasma assessed as half life measured after 48 hrs by LC-MS analysis; assay type: ADME, cell-free
HCT-116 [14] = assay: Modulation of RNA splicing in human HCT-116 cells assessed as decrease in MCL-1S expression by Western blot analysis; assay type: functional, cell-based; settings: dose 3-100 nM

| SMILES | GI50 (A549) [nM] | GI50 (HCT-116 [4]) [nM] | GI50 (SW48) [nM] | Stability [12] | half-life [13] [h] | half-life [1] [min] | GI50 at 72 h [2] [nM] | GI50 at 72 h [3] [nM] | GI50 (DMS-53) [nM] | GI50 (DMS-114) [nM] | CI [5] | CI [6] | CI [7] | CI [8] | CI [9] | Activity (HCT-116 [10]) | Activity (HCT-116 [11]) | Activity (HCT-116 [14]) |
| --- | --- | --- | --- | --- | --- | --- | --- | --- | --- | --- | --- | --- | --- | --- | --- | --- | --- | --- |
| CC(=O)O[C@@H](C)/C=C\C(=O)N[C@@H]1C[C@H](C)[C@H](C/C=C(C)/C=C/[C@H]2OC(C)(C)C[C@@]3(CO3)[C@@H]2O)O[C@@H]1C | 2.7 | 0.7 | 0.9 | – | – | 1 | 0.9 | 2 | 0.5 | 0.4 | – | – | – | – | – | – | – | – |
| Cc1c(-c2c(-c3ccc(F)o3)sc3ncnc(O[C@H](Cc4ccccc4OCc4ccnn4CC(F)(F)F)C(=O)O)c23)ccc(OCCN2CCN(C)CC2)c1Cl | – | – | – | – | – | – | – | – | – | – | 0.55 | 0.42 | 0.46 | 0.47 | 0.38 | – | – | – |

Further lines, with some results ahead:

| GI50 (A549) [nM] | GI50 (HCT-116 [4]) [nM] | GI50 (SW48) [nM] | Stability [12] | half-life [13] [h] | SMILES | half-life [1] [min] | GI50 at 72 h [2] [nM] | GI50 at 72 h [3] [nM] | GI50 (DMS-53) [nM] | GI50 (DMS-114) [nM] | CI [5] | CI [6] | CI [7] | CI [8] | CI [9] | Activity (HCT-116 [10]) | Activity (HCT-116 [11]) | Activity (HCT-116 [14]) |
| --- | --- | --- | --- | --- | --- | --- | --- | --- | --- | --- | --- | --- | --- | --- | --- | --- | --- | --- |
| 8.6 | 10.5 | 10.7 | Stable | 8 | COCO[C@@H](C)/C=C\C(=O)N[C@@H]1CC[C@H](C/C=C(C)/C=C/[C@H]2OC(C)(C)C[C@@]3(CO3)[C@@H]2O)O[C@@H]1C | – | 35.7 | 63.2 | 14.9 | 10.2 | – | – | – | – | – | Dose-Dependent Effect | Dose-Dependent Effect | Dose-Dependent Effect |
| 34000 | 16000 | 16000 | – | – | COCO[C@@H](C)/C=C\C(=O)N(C)[C@@H]1CC[C@H](C/C=C(C)/C=C/[C@H]2OC(C)(C)C[C@@]3(CO3)[C@@H]2O)O[C@@H]1C | – | – | – | 23000 | 8700 | – | – | – | – | – | – | – | – |
| 7500 | 4100 | 4600 | – | – | COCO[C@@H](C)/C=C\C(=O)N(C)[C@@H]1C[C@H](C)[C@H](C/C=C(C)/C=C/[C@H]2OC(C)(C)C[C@@]3(CO3)[C@@H]2O)O[C@@H]1C | – | – | – | 6000 | 4900 | – | – | – | – | – | – | – | – |
